According to BindingDB's records for patent US20250320228 (Merck Patent, 2025):

Target: Mitogen-activated protein kinase kinase kinase kinase 1 (Homo sapiens, UniProt Q92918)
Assay: HPK1 Kinase Assay
Description: A recombinant fusion protein consisting of full-length human HPK1 (MAP4K1) with an N-terminal Glutatione S-transferase (GST) tag was produced in insect cells Sf21 using the baculovirus expression system. GST-HPK1 protein was purified from cell lysates by glutathione Sepharose affinity chromatography. The assay is run in three continuous steps: 1) the HPK1 enzymatic kinase reaction, 2) an ATP depletion, and 3) the ADP detection, the steps 2 and 3 are performed with ADP-Glo™ Kinase Assay kit from Promega (V9101). Test compounds were prepared by 10-point serial dilution in dimethyl sulfoxide (DMSO) and 100 nL of each dilution was spotted onto a 384-well Optiplate (Perkin Elmer and Cat #6007299) by Labcyte Echo. 5 μL kinase reaction buffer (0.02% Brij-35, 2 mM DTT, 50 mM HEPES pH 7.5, MgCl2 10 mM, BSA 0.01% and β-glycerophosphate 12.5 mM) containing HPK1 (3.2 nM) enzyme was transferred to each well and incubated for 15 minutes at room temperature at 60% humidity. The enzymatic reaction was started by adding 5 μl of Start-Mix (10 μM ATP and 3.235 μM MBP). After 120 minutes, the reaction was stopped by adding 5 μL of ADP-Glo reagent (Promega, V9101) and incubating for 40 min. in the dark at 23° C. To determine the level of ADP, 10 μl ADP-Glo Detection solution was added and incubated for 1 hour at 23° C. in the dark. The plate was transferred to a Perkin Elmer EnVision (2104 Multilabel Reader) for luminescence detection and percent inhibition activity and IC50 value were determined using Genedata Screener.

Chain of Mitogen-activated protein kinase kinase kinase kinase 1 (Q92918 whole entry): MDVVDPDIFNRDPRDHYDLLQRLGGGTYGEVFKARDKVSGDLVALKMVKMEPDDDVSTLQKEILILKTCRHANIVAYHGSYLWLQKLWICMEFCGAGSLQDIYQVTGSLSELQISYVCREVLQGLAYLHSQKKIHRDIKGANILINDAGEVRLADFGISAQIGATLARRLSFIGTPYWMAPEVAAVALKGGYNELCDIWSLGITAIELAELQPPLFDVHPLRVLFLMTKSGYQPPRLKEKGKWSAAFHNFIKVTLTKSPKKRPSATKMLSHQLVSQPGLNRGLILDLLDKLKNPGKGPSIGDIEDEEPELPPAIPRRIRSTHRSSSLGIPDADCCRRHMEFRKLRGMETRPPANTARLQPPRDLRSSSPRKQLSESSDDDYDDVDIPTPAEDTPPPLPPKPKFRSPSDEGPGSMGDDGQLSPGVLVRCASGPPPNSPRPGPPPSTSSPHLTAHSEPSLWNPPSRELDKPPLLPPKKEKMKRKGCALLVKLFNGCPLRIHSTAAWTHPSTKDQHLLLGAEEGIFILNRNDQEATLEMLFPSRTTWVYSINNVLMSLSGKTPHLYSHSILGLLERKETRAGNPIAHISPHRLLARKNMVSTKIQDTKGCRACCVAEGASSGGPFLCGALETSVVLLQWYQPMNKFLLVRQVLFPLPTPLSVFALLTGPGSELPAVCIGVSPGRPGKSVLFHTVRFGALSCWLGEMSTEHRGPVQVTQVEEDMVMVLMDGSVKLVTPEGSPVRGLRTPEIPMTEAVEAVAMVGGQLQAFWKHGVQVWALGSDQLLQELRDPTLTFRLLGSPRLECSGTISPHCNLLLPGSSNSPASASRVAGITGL

Compound | IC50
COCc1n[nH]c(-c2cc(C(N)=O)c3ncnc(N[C@H]4CCCNC4)c3n2)n1 [US20250320228, Example 13] | > 1000 nM
N#C[C@H]1COCCN1Cc1ccc(-c2cc(C(N)=O)c3ncnc(N[C@H]4CCCNC4)c3n2)cc1 [US20250320228, Example 14] | < 100 nM
NC(=O)c1cc(-c2ccc(CN3CCOC[C@H]3C(F)(F)F)cc2)nc2c(N[C@H]3CCCNC3)ncnc12 [US20250320228, Example 15] | < 100 nM
NC(=O)c1cc(-c2ccc(CN3CCOCC3)cc2)nc2c(NC34CNCC3C4)ncnc12 (stereo not given) [US20250320228, Example 20] | < 100 nM
NC(=O)c1cc(-c2ccc(CN3CCOCC3)cc2)nc2c(N3CC[C@@H](F)[C@H](N)C3)ncnc12 [US20250320228, Example 22] | > 1000 nM
C[C@@H](N)CNc1ncnc2c(C(N)=O)cc(-c3ccc(CN4CCOCC4)cc3)nc12 [US20250320228, Example 25] | < 100 nM
NC(=O)c1cc(-c2ccc(CN3CCOCC3)cc2)nc2c(N[C@@H]3CNC[C@H](F)C3)ncnc12 [US20250320228, Example 26] | < 100 nM
NC(=O)c1cc(-c2cc(F)c(OCC3(O)CCC3)c(F)c2)nc2c(N[C@H]3CCCNC3)ncnc12 [US20250320228, Example 39] | < 100 nM
CN1CCc2cc(-c3cc(C(N)=O)c4ncnc(N[C@H]5CCCNC5)c4n3)nn2CC1=O [US20250320228, Example 45] | < 100 nM
NC(=O)c1cc(-c2ccc(OC(F)(F)F)cc2)nc2c(N[C@@H]3CNC[C@H](F)C3)ncnc12 [US20250320228, Example 71] | < 100 nM
